As a reminder, the IC50 is the midpoint of a concentration-inhibition curve. For orientation: inhibition means the share of the control response that was lost under treatment. The low end stands for a response near the control, the high end for a response far below the control.

This note sets out measurements from article PMC10525585, “Evaluation of the Antibacterial Effect of Aurone-Derived Triazoles on Staphylococcus aureus” (Antibiotics, 2023).

In data set [1] the test system is methicillin-resistant S. aureus ATCC 43300 (MRSA). The data set can be described thus: Antibacterial assay (broth microdilution, PrestoBlue). It counts as cell-based, Staphylococcus aureus. Here is the method: MRSA strain ATCC 43300 and MSSA strain S. aureus ATCC 29213 were grown on Tryptic Soy Agar (TSA) plates. Before use, an isolated colony was transferred from the TSA plate into Tryptic Soy Broth (TSB) and incubated 18–24 h in a humidified incubator at 37 °C. To adjust for a standard concentration of bacteria, the turbidity of the culture was measured at 600 nm, and its optical density (OD600) adjusted to be in the range 0.08–0.12 which equates to a concentration of approximately 1 × 10^8 CFU/mL. This suspension was diluted 1:20 in TSB. […] MRSA strain S. aureus ATCC 43300 and MSSA strain S. aureus ATCC 29213 were used for all testing in this study.
The assay for anti-Staphylococcal activity of AT compounds was prepared in 96-well transparent, U-bottom plates. A series of 2-fold dilutions of AT concentrations was tested in triplicate, with each well containing 10 µL of prepared bacterium and 90 µL of AT mixture in CAMHB. […] Blank wells with only CAMHB, a negative control well with 10 µL of bacterium solution mixed into 90 µL CAMHB, a vehicle control well with bacteria mixed into 1% DMSO in CAMBH, and a positive cell death control with vancomycin (1 µL of stock 2 mg/mL solution in 89 µL CAMHB with 10 µL of bacteria) were included. The plate was incubated for 18–24 h at 37 °C in a humidified incubator. Before measurement, PrestoBlue^TM dye (Invitrogen, Carlsbad, CA, USA) was added (10 µL per well) and incubated for 1 h with aluminum foil covering the plate. A CLARIOstar® (BMG LABTECH, Cary, NC, USA) multi-mode plate reader was used to measure the fluorescence at wavelengths of 560 nm for excitation and 590 nm for emission. Inhibitory concentration (IC50) values were defined as half inhibitory concentration and were computed using GraphPad Prism version 9.1 software.
For orientation: Dilution methods test growth across graded concentrations, often in twofold steps.

The subject of another data set is MRSA. The data set can be described thus: Growth curve assay (Bioscreen C, 48 h). The class given is cell-based, Staphylococcus aureus. The note with it: 48 h growth curve; for strength of growth inhibition: concentrations closer to the IC50 values (5–25 µM). Here is the method:
(§1) This suspension was diluted 1:20 in TSB.
(§2) For the growth curve assay, honeycomb plates (Growth Curves USA, Piscataway, NJ, USA) were used with TSB as the growth medium. Using bacterial cultures as described above, growth curve measurements were carried out in quintuplicates. For positive growth controls, wells with 10 µL of bacteria mixed into 90 µL of TSB were used. For quintuplicate treatment wells, 4-fold dilutions of AT compounds were used such that AT concentrations of 100, 25, 6.25, and 1.56 µM were tested. A 10 µL inoculum of bacteria prepared as described above was added to each dilution of the ATs. The growth in each well was measured in 15 min intervals for 48 h at 37 °C in the Bioscreen C instrument. The results were processed and analyzed with Microsoft Excel (version 2201) and GraphPad Prism 9.3.1 software (GraphPad by Dotmatics, Boston, MA, USA).

The subject of the next data set is MSSA. The data set can be described thus: Growth curve assay (Bioscreen C, 48 h). It counts as cell-based, Staphylococcus aureus. The settings on record: 48 h growth curve; for strength of growth inhibition: concentrations closer to the IC50 values (5–25 µM). The method, then:
as §1, §2

A further data set in a line: Hemolysis assay. It counts as cell-based, human. The note with it: human, human red blood cells (0.5% final suspension, single donor), 1 h, 37 °C, read-out: Hemolysis by AT Compounds (%). The method, then:
(§3) A single donor-specific blood sample was acquired from Innovative Research Inc. (Novi, MI, USA) for the assay (donor#:1WB3ALS40ML-36517). A volume of 1–2 mL of the human red blood cells (hRBCs in Alsevier’s solution) was mixed with 8–10 mL of Phosphate-Buffered Saline (PBS) in a 15 mL centrifuge tube to pellet by centrifugation at 1400× g in a swinging bucket centrifuge for 10 min. The supernatant was then removed, and the cells were washed with 10 mL of PBS two additional times. The cells were resuspended in PBS to achieve a final 1% solution of hRBCs.
(§4) The wells of a 96-well U-bottom plate that contained AT compounds were prefilled with 50 µL of PBS. A 2-fold dilution of AT compounds was prepared. For each triplicate, an initial AT dilution was prepared using 6 µL of AT stock solution in 144 µL of PBS. This initial mixture was diluted 2-fold on a 96-well plate following the method described above for a final volume of 50 µL of diluted AT in each well. As a final step, 50 µL of the 1% hRBC solution was added to each well, except the blank wells. PBS and hRBCs were used for negative control, whereas hRBCs with 1% and 0.1% Triton-X100 were used as positive controls. After 1 h of incubation at 37 °C in a humidified incubator, the plate was centrifuged at 1000 rpm for 10 min in a Thermo Sorvall Legend XTR centrifuge with a TX-750 swinging bucket rotor (Thermo Fisher Scientific, Waltham, MA, USA) to pellet intact cells. After centrifugation, 50 µL of supernatant was transferred from each well into a new 96-well U-bottom plate and hemolysis of the hRBCs detected in a plate-reader for absorbance at 405 nm. Hemolytic activity for all concentrations of the ATs was computed following this formula:(1) % hemolysis=OD405nmsample− OD405nmnegative control/OD405nmpositivecontrol[…]

The test system of another data set is human red blood cells. Briefly: Hemolysis assay. It counts as cell-based. The settings on record: overall statement. Here is the method:
as §3, §4

The mark [2] stands for this setting: Staphylococcus aureus, Table 1 and text, 18–24 h, CAMHB, read-out: IC50 (µM) MRSA.
Where [3] appears, read: Staphylococcus aureus, Table S1, read-out: IC50 MRSA.
[4] abbreviates: Staphylococcus aureus, Table S1.

Molecules are shown by their SMILES. Where two headings read alike, the source gives them in different places. Where only a bound is given, the exact number is not on record here.

For the compound `O=C(c1ccccc1O)c1n[nH]nc1-c1ccc(Cl)cc1` [AT106], the IC50 in data set [1] (setting [2]) came out at 22.4 µM. In data set [1] (setting [3]), the IC50 is 23.5 µM. The same compound had an inhibition at 100 µM in data set [1] (setting [4]) of 64.1%. In the data set with MRSA, the “strength of growth inhibition” value is “weaker inhibitors”. Besides, the “strength of growth inhibition” value in the data set on MSSA is “weaker inhibitors”. Further, in “Hemolysis assay”, the hemolysis at 1 h, 3.125 µM stood at 0.6%; the hemolysis at 1 h, 6.25 µM is -0.1%; the hemolysis at 1 h, 12.5 µM came out at 1.2%; the hemolysis at 1 h, 25 µM stood at 1.2%. In the data set “Hemolysis assay”, the hemolysis at 1 h, 50 µM is -0.3% and the hemolysis at 1 h, 100 µM is 1.1%. The “hemolytic activity for human erythrocytes” value (“hemolytic activity” for short) in the data set on human red blood cells is “not hemolytic”.

For `O=C(c1ccccc1O)c1n[nH]nc1-c1ccc(Br)s1` [AT137], the IC50 in data set [1] (setting [2]) is < 6 µM. The compound further had an inhibition at 100 µM in data set [1] (setting [4]) of 93.8%. For the same compound, the IC50 in data set [1] (Table 1 and text, 18–24 h, CAMHB, read-out: IC50 (µM) MRSA) was found to be 3.87 µM. Further, in the data set with MRSA (0–100 µM, among the four ATs), the “relative inhibition of MRSA growth” value is on record as “greatest inhibition”. The “blocking of bacterial growth” value with MRSA (concentrations below 10 µM) is given as “successful in blocking bacterial growth”. Moreover, the “strength of growth inhibition” value with MRSA is reported as “strong inhibitors”. The “blocking of bacterial growth” value in the data set with MSSA (concentrations below 10 µM) is reported as “successful in blocking bacterial growth”. Further, the “strength of growth inhibition” value in the data set on MSSA was “strong inhibitors”. In the data set “Hemolysis assay”, the hemolysis at 1 h, 3.125 µM is -2.6%; the hemolysis at 1 h, 6.25 µM was -0.5%; the hemolysis at 1 h, 12.5 µM was -0.8%; the hemolysis at 1 h, 25 µM came out at 2.7%. Further, in “Hemolysis assay”, the hemolysis at 1 h, 50 µM worked out at 1.4% and the hemolysis at 1 h, 100 µM came out at 1.8%. For the same compound, in the data set on human red blood cells, the “hemolytic activity” value was “not hemolytic”.

Consider `O=C(c1ccccc1O)c1n[nH]nc1-c1cccc(C(F)(F)F)c1` [AT116], for which the 50% inhibitory concentration (IC50) in data set [1] (setting [2]) was 8.29 µM. Besides, the IC50 in data set [1] (setting [3]) was found to be 35.4 µM. For the same compound, 100 µM produced 100% inhibition in data set [1] (setting [4]). In the data set with MRSA, the “strength of growth inhibition” value is listed as “weaker inhibitors”. Further, the “strength of growth inhibition” value in the data set with MSSA is recorded as “weaker inhibitors”. In addition, in “Hemolysis assay”, the hemolysis at 1 h, 3.125 µM worked out at 0.8%; the hemolysis at 1 h, 6.25 µM was -0.7%; the hemolysis at 1 h, 12.5 µM turned out to be 2.3%; the hemolysis at 1 h, 25 µM was 2.1%. In the data set “Hemolysis assay”, the hemolysis at 1 h, 50 µM stood at 2.6% and the hemolysis at 1 h, 100 µM was found to be 3.5%. Moreover, in the data set with human red blood cells, the “hemolytic activity” value is reported as “not hemolytic”.
